Reference: ChEMBL document CHEMBL2150993, “Substituted thiazoles VII. Synthesis and antitumor activity of certain 2-(substituted amino)-4-phenyl-1,3-thiazole analogs” (2012)

Assays:
Format in all cases: functional
[1] = Antiproliferative activity against human leukemia cells after 48 hrs by cell counting analysis
[2] = Antiproliferative activity against human non-small cell lung cancer cells after 48 hrs by cell counting analysis; conditions: Cancer cell lines
[3] = Antiproliferative activity against human colon cancer cells after 48 hrs by cell counting analysis; conditions: Cancer cell lines
[4] = Antiproliferative activity against human CNS cancer cells after 48 hrs by cell counting analysis; conditions: Cancer cell lines
[5] = Antiproliferative activity against human melanoma cells after 48 hrs by cell counting analysis
[6] = Antiproliferative activity against human ovarian cancer cells after 48 hrs by cell counting analysis; conditions: Cancer cell lines
[7] = Antiproliferative activity against human renal cancer cells after 48 hrs by cell counting analysis; conditions: Cancer cell lines
[8] = Antiproliferative activity against human prostate cancer cells after 48 hrs by cell counting analysis; conditions: Cancer cell lines
[9] = Antiproliferative activity against human breast cancer cells after 48 hrs by cell counting analysis; conditions: Cancer cell lines
[10] = read-out: LC50 (the source's name)

O=c1[nH]cc(F)c(=O)[nH]1 [FLUOROURACIL]
TGI [1]: > 100 µM
CC50 [1, 10]: > 100 µM
GI50 [2]: > 100 µM
TGI [2]: > 100 µM
CC50 [2, 10]: > 100 µM
GI50 [3]: 8.4 µM
TGI [3]: > 100 µM
CC50 [3, 10]: > 100 µM
TGI [4]: > 100 µM
CC50 [4, 10]: > 100 µM
GI50 [5]: 70.6 µM
TGI [5]: > 100 µM
CC50 [5, 10]: > 100 µM
GI50 [6]: 61.4 µM
TGI [6]: > 100 µM
CC50 [6, 10]: > 100 µM
GI50 [7]: 45.6 µM
TGI [7]: > 100 µM
CC50 [7, 10]: > 100 µM
GI50 [8]: 22.7 µM
TGI [8]: > 100 µM
CC50 [8, 10]: > 100 µM
GI50 [9]: 76.4 µM
TGI [9]: > 100 µM
CC50 [9, 10]: > 100 µM
